Reference: ChEMBL document CHEMBL1201862, “PubChem BioAssay data set” (2004)
Several values for one entry are separate records, joined by “and”; a condition that tells them apart may be missing. Identical values can stand only once.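 Following 48 hours of exposure in 96-well plates, responses at five concentrations were used to interpolate endpoints linearly. Here, GI50 denotes the concentration required for 50% inhibition of growth.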 Activity calls are given as the source filed them. Rule as the data show it: active = GI50 up to about 1.1 µM and inactive = higher.

Legend:
Experiment in all cases: NCI anticancer screen, dose series, 48 h
A498 = system: A498
COLO 205 = system: COLO 205
DMS-114 = system: DMS-114
Malme-3M = system: Malme-3M
NCI-H226 = system: NCI-H226
NCI-H522 = system: NCI-H522
RXF 393 = system: RXF 393
SF-539 = system: SF-539
SK-MEL-2 = system: SK-MEL-2
SN12C = system: SN12C
U-251 = system: U-251
UACC-257 = system: UACC-257
DU-145 = system: DU-145
MDA-MB-231 = system: MDA-MB-231
MDA-MB-435 = system: MDA-MB-435
NCI/ADR-RES = system: NCI/ADR-RES
PC-3 = system: PC-3
SNB-75 = system: SNB-75
SR = system: SR
SNB-78 = system: SNB-78

| SMILES | GI50 (A498) | GI50 (COLO 205) | GI50 (DMS-114) | GI50 (Malme-3M) | GI50 (NCI-H226) | GI50 (NCI-H522) | GI50 (RXF 393) | GI50 (SF-539) | GI50 (SK-MEL-2) | GI50 (SN12C) | GI50 (U-251) | GI50 (UACC-257) | GI50 (DU-145) | GI50 (MDA-MB-231) | GI50 (MDA-MB-435) | GI50 (NCI/ADR-RES) | GI50 (PC-3) | GI50 (SNB-75) | GI50 (SR) | GI50 (SNB-78) |
| --- | --- | --- | --- | --- | --- | --- | --- | --- | --- | --- | --- | --- | --- | --- | --- | --- | --- | --- | --- | --- |
| CCOc1ccc(NC(=O)C(=O)CC(=O)C2=C(C)Nc3ccccc3S2)cc1 | > 50 µM (inactive) | > 50 µM (inactive) | > 50 µM (inactive) | > 50 µM (inactive) | > 50 µM (inactive) | > 50 µM (inactive) | > 50 µM (inactive) | > 50 µM (inactive) | > 50 µM (inactive) | > 50 µM (inactive) | > 50 µM (inactive) | > 50 µM (inactive) | – | – | – | – | – | – | – | – |
| Cc1ccc(N/N=C2\C3=C(CCC(C)(C)O3)C(=O)c3ccccc32)cc1 | 18.3 µM (inactive) | 24.7 µM (inactive) | – | 9.16 µM (inactive) | 35.2 µM (inactive) | 32.4 µM (inactive) | 32.4 µM (inactive) | 39.3 µM (inactive) | 18.9 µM (inactive) | 14.6 µM (inactive) | 37.5 µM (inactive) | 11 µM (inactive) | 12.4 µM (inactive) | 56.1 µM (inactive) | 17.9 µM (inactive) | 25.6 µM (inactive) | 37.6 µM (inactive) | 19.2 µM (inactive) | 16.5 µM (inactive) | – |
| CC1OC(OC23C(=O)CC(C)(O)CC2(O)C=CC2=C3C(=O)c3ccc(C4CC(OC5CCC(OC6CC(O)C(O)C(C)O6)C(C)O5)C(O)C(C)O4)c(O)c3C2=O)CCC1O (centres undefined) | – | 3.79 µM (inactive) and 2.33 µM (inactive) | – | 3.02 µM (inactive) and 1.57 µM (inactive) | 19.5 µM (inactive) and 18.6 µM (inactive) | 1.94 µM (inactive) and 2.05 µM (inactive) | – | 17.7 µM (inactive) and 17.3 µM (inactive) | 16.7 µM (inactive) and 16.3 µM (inactive) | 18.3 µM (inactive) and 16.5 µM (inactive) | 16 µM (inactive) and 17.1 µM (inactive) | 17.9 µM (inactive) and 15.2 µM (inactive) | – | – | – | – | – | 16.3 µM (inactive) and 16.9 µM (inactive) | > 100 µM (inactive) | 17.3 µM (inactive) and 17.7 µM (inactive) |
| CN(C)CCc1c2c(nc3ccccc13)C(=O)c1cccnc1C2=O | 0.597 µM (active) | 1.97 µM (inactive) | – | 0.49 µM (active) | 0.0902 µM (active) | 0.175 µM (active) | 0.172 µM (active) | 0.168 µM (active) | 1.17 µM (inactive) | 0.277 µM (active) | 0.176 µM (active) | 0.214 µM (active) | 0.126 µM (active) | 0.385 µM (active) | 0.331 µM (active) | 0.119 µM (active) | 0.313 µM (active) | 0.42 µM (active) | 0.0456 µM (active) | – |
| NS(=O)(=O)c1nn2c(Br)c(-c3ccccc3)nc2s1 | 17 µM (inactive) | 5.24 µM (inactive) | – | 3.96 µM (inactive) | 1.91 µM (inactive) | 1.61 µM (inactive) | 0.847 µM (active) | 1.96 µM (inactive) | 4.52 µM (inactive) | 2.92 µM (inactive) | 4.59 µM (inactive) | 5.16 µM (inactive) | 3.08 µM (inactive) | 4.47 µM (inactive) | 4.45 µM (inactive) | 3.84 µM (inactive) | 6.03 µM (inactive) | 5.18 µM (inactive) | 1.88 µM (inactive) | – |
| NC1=NC(c2ccc(Cl)cc2)N(c2ccc(S(=O)(=O)Nc3ncccn3)cc2)C(N)=N1 (centres undefined) | > 100 µM (inactive) | > 100 µM (inactive) | – | > 100 µM (inactive) | > 100 µM (inactive) | > 100 µM (inactive) | > 100 µM (inactive) | > 100 µM (inactive) | > 100 µM (inactive) | > 100 µM (inactive) | > 100 µM (inactive) | > 100 µM (inactive) | > 100 µM (inactive) | > 100 µM (inactive) | > 100 µM (inactive) | > 100 µM (inactive) | > 100 µM (inactive) | > 100 µM (inactive) | > 100 µM (inactive) | – |
| O=C(Cc1cc(=O)oc2cc(O)ccc12)N/N=C/c1ccc(N(CCCl)CCCl)cc1 | 22.3 µM (inactive) | 29.2 µM (inactive) | – | 20.5 µM (inactive) | 17.7 µM (inactive) | 20.9 µM (inactive) | 16.6 µM (inactive) | 18 µM (inactive) | > 100 µM (inactive) | 17.7 µM (inactive) | 17.4 µM (inactive) | 22.1 µM (inactive) | 19.6 µM (inactive) | 18.5 µM (inactive) | 19.8 µM (inactive) | 84.1 µM (inactive) | 17.9 µM (inactive) | 21.7 µM (inactive) | 14.2 µM (inactive) | – |
| NC(Cc1ccccc1)C(=O)OCN1C(=O)C2C3C=CC(C2C1=O)C1C2C(=O)N(COC(=O)C(N)Cc4ccccc4)C(=O)C2C31 (centres undefined) | – | 17.5 µM (inactive) | 20.9 µM (inactive) | – | 46.7 µM (inactive) | – | 22.5 µM (inactive) | 22.2 µM (inactive) | – | 22.3 µM (inactive) | 20.7 µM (inactive) | 28.8 µM (inactive) | – | – | – | – | – | 22.9 µM (inactive) | 27.7 µM (inactive) | – |
